Laboratory results taken from patent publication US20260217701A1, “SELECTIVE BET INHIBITORS AND USES THEREOF” (Tay Therapeutics Limited, priority 2022, published 2026).
Values joined by “and” are separate entries in the source; they are usually repeats but may differ in a detail not shown here. Identical values can stand only once. “Also recorded” adds a separate entry of the source. Like-named read-outs stand apart in the source and are kept apart here. Marks after values point to notes of the source that are not given here.

Legend:
[1] = test system: IL-22, IFNγ, TNF, IL-17A, IL-12/IL-23p40; experiment: EAE study: serum cytokine analysis (Luminex); format: in vivo, C57BI/6 mice
Procedure: Experimental Method H: EAE in animals treated with a BET inhibitor and vehicle. Animals were assigned to the groups outlined in Table 38.
Compound A may be formulated as illustrated in Experimental Method A (see Table 2E.). A 40 mg/mL stock solution of Compound A in DMSO was prepared and aliquots stored at −20° C. On each day of preparation an e.g., 0.75 mL aliquot of thawed stock was diluted with an equal volume of DMSO. The remaining vehicle components were added to provide the highest dose and then diluted with vehicle to provide lower doses. A 30 mg/mL stock solution of FTY720 in ethanol was prepared and stored at −20° C. Daily, the stock solution was diluted with room temperature water to a final dosing concentration of 0.6 mg/mL. Formulated Compound A, FTY720 and vehicle were each at room temperature for dosing.
Female C57BI/6 mice (9 weeks old) were acclimated for seven days prior to study initiation. On Day-1, animals were assigned to groups in a balanced manner to achieve similar average weights across the different groups. Chronic EAE was induced in female C57BI/6 mice following immunization with an emulsion of MOG35-55/CFA on Day 0, followed by an injection of pertussis toxin two hours after the initial immunization. On Day 1, a second injection of pertussis toxin was administered 24 hours after the initial immunization. Mice were injected subcutaneously at two sites on the back with the MOG35-55/CFA emulsion (Hooke Kit™ MOG35-55/CFA Emulsion PTX). The first injection site was located approximately 1 cm caudal of the neckline (upper back), and the second injection site was approximately 2 cm cranial of the base of the tail (lower back). The injection volume was 0.1 mL for each injection. The pertussis toxin was administered at the described times through intraperitoneal injection at a concentration of 85 ng/dose for both injections.
On Day 28, all surviving mice except those in the FTY720 group had blood collected via retro-orbital sinus into serum separator tubes. Serum was isolated, frozen on dry ice, and stored at −80° C. for cytokine analysis. Cytokine analysis was performed using Luminex in serum samples, and the cytokines IL-22, IFNγ, TNF, IL-17A, IL-12/IL-23p40 were assessed.

[2] = UUO study: plasma concentration of Compound A; format: in vivo, rats; conditions: for concentration at 4 h: rat, plasma, oral, 10 mg/kg
[3] = test system: idiopathic pulmonary fibrosis (bleomycin); experiment: Bleomycin IPF model: oxygen saturation (pulse oximetry); format: in vivo, C57BI/6J mice; conditions: for Oxygen saturation levels: Bleo mice
Procedure: Male C57BI/6J mice, aged 12 weeks with an approximate weight of 25-30 g were obtained from Jackson Laboratories (Bar Harbor, ME). Animals were acclimated for two weeks prior to study initiation, and were randomized into the experimental groups outlined in Table 32.
Intratracheal (IT) administration of Bleo or PBS control was conducted at the start of the study (Day 0). […] Animals were weighed on Day 0, and indexed boluses of PBS control (Group 1) or Bleo (Groups 2-6) were delivered by IT administration.
Following administration of Bleo, animals (n=10/group) were included in the study if they met the following guidelines on Day 7: (1) a predictable 5% loss in body weight, and (2) the presence of fibrotic pulmonary lesions, detected by micro-CT imaging. 10 animals from Group 1 additionally proceeded as controls. Animals that continued in the study on Day 7 received an oral gavage (OG) administration of PBS, Compound A (1 mg/kg, 3 mg/kg, 10 mg/kg), or Pirfenidone (300 mg/kg), as outlined in Table 31 in 25 μL boluses every other day (QOD), starting on Day 7. Compound A was formulated in 5% (v/v) DMSO/15% (v/v) PEG 400/80% (v/v) E-TPGS in purified water.
Body weights were obtained at Day 0 at the start of the study, and again at Day 7 to determine if an animal continued in the study. Body weight was measured daily from Day 7 until Day 21, and oxygen saturation was measured by a pulse oximetry (MouseOx) system QOD from Day 7 until study completion on Day 21, and results were plotted and analyzed by Kaplan-Meier plots.

renal fibrosis (UUO) = experiment: Unilateral Urethral Obstruction (UUO) model of renal fibrosis: clinical histopathology scores; format: in vivo, rats; design: key to Glomerulosclerosis clinical score / Interstitial nephritis clinical score / Collagen fiber deposition clinical score / Nephropathy clinical score: 0=no more or absence; 1=low; 2=moderate; 3=high; 4=severe
Procedure: Starting on Day 0, animals in group 2 were administered daily doses of the vehicle for 14 days. Starting on Day 0, animals in group 3 were administered daily doses of Compound A (10 mg/kg) for 14 days. A design of the UUO study is depicted in FIG. 24.
Blind clinical nephropathy scores were conducted for all animals in the study. Glomerulosclerosis, interstitial nephritis, collagen fiber deposition, and nephropathy were each assessed for all experimental rats, and a total clinical score was determined for each rat. The scoring system represented the degree or percentage of lesions in the whole kidney. Clinical score assessments were performed on Day 14.

[4] = UUO rats, individual animals 1-8

## Cn1cc(-c2ccccc2)c(-c2cn(C)c(=O)c3[nH]c(-c4cnn(C(F)(F)F)c4)cc23)cc1=O [Compound A, 6-methyl-4-(1-methyl-2-oxo-5-phenyl-1,2-dihydropyridin-4-yl)-2-(1-(trifluoromethyl)-1H-pyrazol-4-yl)-1,6-dihydro-7H-pyrrolo[2,3-c]pyridin-7-one]
[1]; Compound A 1 mg/kg, Day 28
  IFNγ Mean Concentration (pg/mL) and (SEM): 1.9 (0.8) pg/mL
  IL-12/IL-23p40 Mean Concentration (pg/mL) and (SEM): 34.7 (4.8)* pg/mL
  IL-17A Mean Concentration (pg/mL) and (SEM): 0.5 (0.3) pg/mL
  IL-22 Mean Concentration (pg/mL) and (SEM): 3.5 (1.4) pg/mL
  TNF Mean Concentration (pg/mL) and (SEM): 0.8 (0.4) pg/mL
[1]; Compound A 3 mg/kg, Day 28
  IFNγ Mean Concentration (pg/mL) and (SEM): 1.8 (0.4)* pg/mL
  IL-12/IL-23p40 Mean Concentration (pg/mL) and (SEM): 27.7 (4.9)** pg/mL
  IL-17A Mean Concentration (pg/mL) and (SEM): 1.6 (0.9) pg/mL
  IL-22 Mean Concentration (pg/mL) and (SEM): 6.1 (3.0) pg/mL
  TNF Mean Concentration (pg/mL) and (SEM): 1.4 (0.4) pg/mL
[1]; Compound A 10 mg/kg, Day 28
  IFNγ Mean Concentration (pg/mL) and (SEM): 0.6 (0.1)*** pg/mL
  IL-12/IL-23p40 Mean Concentration (pg/mL) and (SEM): 17.4 (1.5)*** pg/mL
  IL-17A Mean Concentration (pg/mL) and (SEM): 0.4 (0.3) pg/mL
  IL-22 Mean Concentration (pg/mL) and (SEM): 3.0 (0.7) pg/mL
  TNF Mean Concentration (pg/mL) and (SEM): 0.4 (0.1) pg/mL
[1]; Day 28
  Concentration of IL-22, TNF, and IL-17A relative to vehicle: nor were significant changes measured
[1]; Day 28, 1 mg/kg, 3 mg/kg, and 10 mg/kg
  Concentration of IL-12/IL23p40: dose dependent significant decreases
[1]; Day 28, 3 mg/kg and 10 mg/kg
  IFNγ concentrations: dose dependent significant decrease
[2]; UUO + Compound A, male SD rats, time 4 h, individual Test Subjects 1-8
  Concentration: 220 ng/mL and 318 ng/mL and 133 ng/mL and 215 ng/mL and 132 ng/mL and 194 ng/mL and 198 ng/mL and 195 ng/mL
[2]; male, Sprague-Dawley, UUO + Compound A, male SD rats, time 4 h, mean of 8 test subjects, read-out: Concentration, Mean
  concentration at 4 h: 201 ng/mL
[2]; po, four hours after final treatment, read-out: Mean plasma concentration
  concentration at 4 h: 201 ng/mL
[3]; 3 mg/kg and 10 mg/kg
  Recovery in oxygen saturation relative to IPF control group (Bleo+Saline): significant recovery in oxygen saturation levels
[3]; Bleo + Compound A (1 mg/kg) OG QOD from D7, Day 7
  Mean Oxygen Saturation: 80.6
[3]; Bleo + Compound A (1 mg/kg) OG QOD from D7, Day 9
  Mean Oxygen Saturation: 84.25
[3]; Bleo + Compound A (1 mg/kg) OG QOD from D7, Day 11
  Mean Oxygen Saturation: 87.17
[3]; Bleo + Compound A (1 mg/kg) OG QOD from D7, Day 13
  Mean Oxygen Saturation: 88.03
[3]; Bleo + Compound A (1 mg/kg) OG QOD from D7, Day 15
  Mean Oxygen Saturation: 88.58
[3]; Bleo + Compound A (1 mg/kg) OG QOD from D7, Day 17
  Mean Oxygen Saturation: 88.48
[3]; Bleo + Compound A (1 mg/kg) OG QOD from D7, Day 19
  Mean Oxygen Saturation: 89.87
[3]; Bleo + Compound A (1 mg/kg) OG QOD from D7, Day 21
  Mean Oxygen Saturation: 87.67
[3]; Bleo + Compound A (3 mg/kg) OG QOD from D7, Day 7
  Mean Oxygen Saturation: 82.08
[3]; Bleo + Compound A (3 mg/kg) OG QOD from D7, Day 9
  Mean Oxygen Saturation: 83.77
[3]; Bleo + Compound A (3 mg/kg) OG QOD from D7, Day 11
  Mean Oxygen Saturation: 85.05
[3]; Bleo + Compound A (3 mg/kg) OG QOD from D7, Day 13
  Mean Oxygen Saturation: 85.67
[3]; Bleo + Compound A (3 mg/kg) OG QOD from D7, Day 15
  Mean Oxygen Saturation: 85.97
[3]; Bleo + Compound A (3 mg/kg) OG QOD from D7, Day 17
  Mean Oxygen Saturation: 89.18
[3]; Bleo + Compound A (3 mg/kg) OG QOD from D7, Day 19
  Mean Oxygen Saturation: 89.6
[3]; Bleo + Compound A (3 mg/kg) OG QOD from D7, Day 21
  Mean Oxygen Saturation: 89.88
[3]; Bleo + Compound A (10 mg/kg) OG QOD from D7, Day 7
  Mean Oxygen Saturation: 82.75
[3]; Bleo + Compound A (10 mg/kg) OG QOD from D7, Day 9
  Mean Oxygen Saturation: 84.07
[3]; Bleo + Compound A (10 mg/kg) OG QOD from D7, Day 11
  Mean Oxygen Saturation: 86.87
[3]; Bleo + Compound A (10 mg/kg) OG QOD from D7, Day 13
  Mean Oxygen Saturation: 87.5
[3]; Bleo + Compound A (10 mg/kg) OG QOD from D7, Day 15
  Mean Oxygen Saturation: 88.87
[3]; Bleo + Compound A (10 mg/kg) OG QOD from D7, Day 17
  Mean Oxygen Saturation: 89.23
[3]; Bleo + Compound A (10 mg/kg) OG QOD from D7, Day 19
  Mean Oxygen Saturation: 92.22
[3]; Bleo + Compound A (10 mg/kg) OG QOD from D7, Day 21
  Mean Oxygen Saturation: 93.58
[3]; 3 mg/kg, Day 21
  Oxygen saturation levels: about 90%
[3]; 10 mg/kg, Day 21
  Oxygen saturation levels: about 93.6%
[3]; IPF model
  Improvement of oxygen saturation versus pirfenidone: superior to pirfenidone in improving oxygen saturation
Renal fibrosis (UUO); UUO + Compound A (10 mg/kg) relative to sham treated animals
  Total histology score (FIG. 26D): marked decrease in total histology score
Renal fibrosis (UUO); [4]
  Collagen fiber deposition clinical score: 1 (4×) and 2 (3×) and 3
  Glomerulosclerosis clinical score: 0
  Interstitial nephritis clinical score: 2 (4×) and 3 (4×)
  Nephropathy clinical score: 1 and 2 (7×)
  Total score: 4 and 7 (3×) and 5 (3×) and 8
Renal fibrosis (UUO); UUO rats, 10 mg/kg PO QD, 10 mg/kg
  Clinical histopathology scores / histological indicators of fibrosis relative to UUO + vehicle: reduced levels of interstitial nephritis, collagen fiber deposition, and nephropathy, as well as total clinical scores; also recorded: reduced the severity of all histological indicators of fibrosis; also recorded: ameliorates clinical symptoms associated with UUO
